For one test, the target named is T1, IKKε (Homo sapiens, UniProt Q14164).
T1 construct: His-tag; made in house; host or cells: Sf9 insect cells
T1 sequence (Q14164 1-716): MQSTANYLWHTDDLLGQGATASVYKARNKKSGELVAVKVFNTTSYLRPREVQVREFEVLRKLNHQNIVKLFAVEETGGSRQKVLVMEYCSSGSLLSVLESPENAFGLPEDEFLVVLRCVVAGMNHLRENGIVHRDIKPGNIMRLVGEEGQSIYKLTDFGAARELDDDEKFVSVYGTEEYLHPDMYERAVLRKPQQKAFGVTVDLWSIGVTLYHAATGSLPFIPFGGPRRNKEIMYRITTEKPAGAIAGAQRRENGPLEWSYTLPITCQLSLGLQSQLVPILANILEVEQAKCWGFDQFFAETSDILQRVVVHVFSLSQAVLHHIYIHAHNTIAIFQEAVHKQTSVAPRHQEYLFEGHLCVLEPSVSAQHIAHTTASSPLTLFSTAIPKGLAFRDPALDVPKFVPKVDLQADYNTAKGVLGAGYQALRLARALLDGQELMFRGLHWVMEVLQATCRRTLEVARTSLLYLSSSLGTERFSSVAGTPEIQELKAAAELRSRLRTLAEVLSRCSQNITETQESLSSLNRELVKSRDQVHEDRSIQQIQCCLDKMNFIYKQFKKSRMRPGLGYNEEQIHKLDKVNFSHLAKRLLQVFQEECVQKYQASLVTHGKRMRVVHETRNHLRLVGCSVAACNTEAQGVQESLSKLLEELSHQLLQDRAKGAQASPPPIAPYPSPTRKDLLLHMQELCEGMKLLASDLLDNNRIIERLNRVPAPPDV
The experiment in a line: In-vitro IKKε kinase assay ([γ33]ATP filter-plate). The conditions noted are these: text bins; read-out: IC50 for inhibition of the kinase activity of IKKε. It is filed as biochemical. The method in brief: (§1)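 Phosphorylation of casein or myelin basic protein was counted by P-81 filter capture after 30-45 min reactions stopped with phosphoric acid, with counts normalized to DMSO after background subtraction. ATP was twice Km: 60 μM for TBK1 and 32 μM for IKKε, plus [γ33]ATP. Sf9-expressed His-tag enzymes were used at normal/sensitized levels of 0.1/0.02 μg/ml (TBK1) and 0.1/0.015 μg/ml (IKKε).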

Another test has as its target T2, TBK1 (Homo sapiens, UniProt Q9UHD2).
T2 construct: His-tag; made in house; host or cells: Sf9 insect cells
T2 sequence (Q9UHD2 1-729): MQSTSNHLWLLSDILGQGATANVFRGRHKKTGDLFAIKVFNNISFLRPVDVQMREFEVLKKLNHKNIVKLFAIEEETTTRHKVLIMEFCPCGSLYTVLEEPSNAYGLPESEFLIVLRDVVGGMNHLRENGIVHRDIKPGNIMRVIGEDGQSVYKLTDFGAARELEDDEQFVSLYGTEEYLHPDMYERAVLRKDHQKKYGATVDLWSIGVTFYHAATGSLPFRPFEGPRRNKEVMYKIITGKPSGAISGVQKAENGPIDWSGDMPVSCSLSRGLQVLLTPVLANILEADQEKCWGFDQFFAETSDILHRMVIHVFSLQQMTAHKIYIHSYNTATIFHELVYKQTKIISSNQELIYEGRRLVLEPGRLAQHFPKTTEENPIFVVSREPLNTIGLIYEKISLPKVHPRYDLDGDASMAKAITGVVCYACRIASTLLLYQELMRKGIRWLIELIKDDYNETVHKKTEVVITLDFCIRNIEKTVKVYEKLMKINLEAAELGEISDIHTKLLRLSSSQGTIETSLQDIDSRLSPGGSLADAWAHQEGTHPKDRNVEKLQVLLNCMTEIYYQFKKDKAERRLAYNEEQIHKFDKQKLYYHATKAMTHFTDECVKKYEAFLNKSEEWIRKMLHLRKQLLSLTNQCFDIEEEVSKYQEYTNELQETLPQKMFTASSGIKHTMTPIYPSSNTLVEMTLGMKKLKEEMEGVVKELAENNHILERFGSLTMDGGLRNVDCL
The experiment in a line: In-vitro TBK1 kinase assay ([γ33]ATP filter-plate). It is filed as biochemical. The conditions noted are these: text bins; read-out: IC50 for inhibition of the kinase activity of TBK1. Put shortly: as §1

Test [1] concerns IKKε-mediated phosphorylation of IRF3. The test can be described thus: In-situ phosphorylation of IRF3 (pIRF3 Ser396 ELISA) in HEK293T cells cotransfected with IRF3 and IKKε. It is filed as cell-based. The following applies: Homo sapiens, HEK-293T; HEK293T cells, 20 hours, text bins; read-out: IC50 for inhibition of the in-situ IKKε-mediated phosphorylation of IRF3. Put shortly:
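Cells for the IRF7 Western blots carried IRF7 and TBK1 plasmids, were seeded at 150,000/well, exposed to compound overnight and probed for pSer477/Ser479 IRF7. The ELISA readout used IRF3 + IKKε-cotransfected HEK293T at 20,000/well with 20 h treatment, quantifying pSer396 IRF3 relative to DMSO, plus a parallel CellTiter-Glo viability check.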
Background: In an ELISA, binding on a coated surface is turned into a signal by an enzyme label.

In test [2] the test system is RANTES secretion, RAW264.7 cells. The test can be described thus: RANTES secretion by RAW264.7 cells after nucleic acid agonists (ELISA). The conditions noted are these: 100 nM. It is filed as cell-based, Mouse. An excerpt:
(§2) Mouse RAW264.7 macrophage-like cells provide a model for macrophage function in tissue culture. To investigate the efficacy of compounds according to Formula I in inhibiting nucleic acid cytosolic receptor pathways RAW264.7 cells were pretreated with a compound according to Formula I (Example Compound 471) and then exposed to various single stranded and double stranded RNA and DNA agonists introduced into the cell. To track IKKε/TBK1 signaling pathway activation, RANTES or IFN-β protein secretion was monitored by ELISA-based assays (R & D systems), such as those described above.
RAW264.7 cells were seeded in 96-well culture plates and allowed to grow overnight. The following day, media was replaced and cells were pretreated with 100 nM Example Compound 471 (0.1% final DMSO concentration). After one hour cells were transfected with Lipofectime LTX reagent (Invitrogen, Carlsbad, Calif.) and one of the following agonists: low molecular weight Poly(I:C) (InvivoGen, San Diego, Calif.) at 10 μg/ml to activate RIG-I; high molecular weight Poly(I:C) (InvivoGen, San Diego, Calif.) at 10 μg/ml to activate MDA5; Poly(dA:dT) (InvivoGen, San Diego, Calif.) at 1 ug/ml; 45-basepair double stranded interferon stimulatory DNA oligo (ISD) at 10 μg/ml (Stetson and Medzhitov; Recognition of cytosolic DNA activates an IRF3-dependent innate immune response; Immunity, 24:93-103, 2006); ssDNA at 10 μg/ml (InvivoGen, San Diego, Calif.), ssRNA at 0.5 μg/ml (InvivoGen, San Diego, Calif.), or salmon sperm genomic DNA (gDNA) (InvivoGen, San Diego, Calif.) at 10 ug/ml to activate DAI, IFI16, and other cytosolic nucleic acid receptors. RANTES (FIG. 5) and IFN-β (FIG. 6) secretion were quantified using ELISA kits (Mouse CCL5/RANTES, R&D Systems, Inc., Minneapolis, Minn. and Mouse IFN-β, Thermo Fisher Scientific, Rockford, Ill.).

Test [3] deals with IFN-β secretion, RAW264.7 cells. The experiment in a line: IFN-β secretion by RAW264.7 cells after nucleic acid agonists (ELISA). It is filed as cell-based, Mouse. The conditions noted are these: 100 nM.
From the text: as §2
RAW264.7 cells were seeded in 96-well culture plates and allowed to grow overnight. The following day, media was replaced and cells were pretreated with 100 nM Example Compound 471 (0.1% final DMSO concentration). […] RANTES (FIG. 5) and IFN-β (FIG. 6) secretion were quantified using ELISA kits (Mouse CCL5/RANTES, R&D Systems, Inc., Minneapolis, Minn. and Mouse IFN-β, Thermo Fisher Scientific, Rockford, Ill.).

The structures appear in SMILES notation.

Broadly, the IC50 is the point on the concentration scale where inhibition reaches its midpoint.

Consider `N#Cc1cc(-c2ccnc(Nc3ccc(N4CCOCC4)cc3)n2)ccc1O[C@@H]1CCN(C(=O)CO)C1` [compound 471, 2-{[(3R)-1-(hydroxyacetyl)pyrrolidin-3-yl]oxy}-5-(2-{[4-(morpholin-4-yl)phenyl]amino}pyrimidin-4-yl)benzonitrile], for which, at IKKε, the IC50 is under 5 nM. In addition, on TBK1, the IC50 is under 10 nM. Further, the IC50 in test [1] is under 100 nM. For the same molecule, in test [2], the “induction of RANTES secretion by DNA agonists ISD, ssDNA, poly(dA:dT), gDNA” value was “potently inhibited”; the “induction of RANTES secretion by low and high molecular weight poly(I:C)” value is “modestly inhibited”; the “induction of RANTES secretion by ssRNA agonist” value is reported as “potently inhibited”. In test [3], the “induction of IFN-β secretion by DNA agonists ISD, ssDNA, poly(dA:dT), gDNA” value is “potently inhibited”; the “induction of IFN-β secretion by low and high molecular weight poly(I:C)” value is listed as “modestly inhibited”.

These data come from patent US20150352108A1, “AMINO-PYRIMIDINE COMPOUNDS AS INHIBITORS OF TBK1 AND/OR IKK EPSILON” (Alzheimer's Institute of America, priority 2009, published 2015).
